Measurements: ChEMBL document CHEMBL3608224, “Total synthesis of cordatanine, structural reassignment of drymaritin, and anti-inflammatory activity of synthetic precursors” (Bioorg Med Chem Lett, 2015)
Converted amounts (≈) assume the structure as drawn.

experiment: Antiinflammatory activity in FMLP/CB-induced human neutrophils assessed as inhibition of superoxide anion generation; assay type: functional, cell-based; settings: Neutrophil

SMILES | IC50 [µg/mL]
CCOC(=O)CC(=O)c1nccc2c1[nH]c1ccccc12 | > 10
CCOC(=O)c1nccc2c1[nH]c1ccccc12 | 4.87 (≈ 20.3 µM)
COc1cc(=O)n2c3ccccc3c3ccnc1c32 | > 10

experiment: Antiinflammatory activity in FMLP/CB-induced human neutrophils assessed as inhibition of elastase release; assay type: functional, cell-based; settings: Neutrophil

SMILES | IC50 [µg/mL]
CCOC(=O)CC(=O)c1nccc2c1[nH]c1ccccc12 | > 10
CCOC(=O)c1nccc2c1[nH]c1ccccc12 | 6.29 (≈ 26.2 µM)
COc1cc(=O)n2c3ccccc3c3ccnc1c32 | > 10

experiment: Antiinflammatory activity in FMLP/CB-induced human neutrophils assessed as inhibition of superoxide anion generation relative to control; assay type: functional, Neutrophil; settings: not given

SMILES | inhibition (INH) [%]
CCOC(=O)CC(=O)c1nccc2c1[nH]c1ccccc12 | 10.48
CCOC(=O)c1nccc2c1[nH]c1ccccc12 | 93.92
COc1cc(=O)n2c3ccccc3c3ccnc1c32 | 29.5

experiment: Antiinflammatory activity in FMLP/CB-induced human neutrophils assessed as inhibition of elastase release relative to control; assay type: functional, Neutrophil; settings: not given

SMILES | inhibition (INH) [%]
CCOC(=O)CC(=O)c1nccc2c1[nH]c1ccccc12 | 3.06
CCOC(=O)c1nccc2c1[nH]c1ccccc12 | 70.75
COc1cc(=O)n2c3ccccc3c3ccnc1c32 | 8.2
